Test results reported in patent US20030036564A1, “Control of lyme disease spirochete” (priority 2001, published 2003).

Test system: Borrelia burgdorferi strain B31
Assay: Antibiotic bait diet fed no-choice for seven days to mice infected with Lyme disease spirochete; ear punch biopsy culture and dark field microscopy
Type: in vivo, laboratory mice (Swiss-Webster)
Conditions: ear punch biopsy culture, dark field microscopy
Procedure: The diet compositions described in Examples 1-3 were fed separately on a no-choice basis to separate groups of laboratory mice (Swiss-Webster) infected with the Lyme disease spirochete Borrelia burgdorferi. […]. The mice had all been previously infected with B. burgdorferi strain B31 by subcutaneous injection followed by a minimum 21-day incubation period. To confirm that the mice were positive for the spirochete, a modified ear punch biopsy was performed (Sinsky and Piesman, 1989, J. of Clin. Micro. 27:1723-1727, CDC 1997) on each mouse and the biopsy incubated in a modified BSK-H media for 7 days and viewed under dark field microscopy. The prepared diets were fed to individually housed mice on a no-choice basis and water was offered ad libitum. Consumption was recorded each day and additional feed was added. Diet was presented to the mice for seven consecutive days. On the day following the last day feed was offered, mice were anesthetized with Halothane and ear punch biopsy was performed. The biopsies were incubated in modified BSK-H media for seven days at 34±1° C. Dark field microscopy was then performed on an American Optics 1031 microscope with an American Optics dark field 1096 condenser to determine the presence of spirochetes. Cultures were considered positive if spirochete growth occurred within five weeks of inoculation (Wilske and Preac-Mursic, Aspects of Lyme Borreliosis, Springer-Verlag, New York 1993), viewing the cultures at seven-day increments. A slide was considered negative if no spirochetes were found after searching 100 fields at 400× (Ginsberg and Ewing, J. of Med. Entomology, 26: 183-189, 1989).

[1] = Treatment level 1, chloramphenicol 500 μg/g bait
[2] = Treatment level 2, chloramphenicol 1000 μg/g bait
[3] = Treatment level 3, thiamphenicol 1000 μg/g bait

Row | NUMBER OF MICE TESTING NEGATIVE FOR SPIROCHETE [1] | PERCENTAGE OF MICE TESTING NEGATIVE FOR SPIROCHETE [1] | NUMBER OF MICE TESTING NEGATIVE FOR SPIROCHETE [2] | PERCENTAGE OF MICE TESTING NEGATIVE FOR SPIROCHETE [2] | NUMBER OF MICE TESTING NEGATIVE FOR SPIROCHETE [3] | PERCENTAGE OF MICE TESTING NEGATIVE FOR SPIROCHETE [3] | Structure (SMILES)
1 | 10/10 | (100%) | 10/10 | (100%) |  |  | O=C(N[C@H](CO)[C@H](O)c1ccc([N+](=O)[O-])cc1)C(Cl)Cl [CHLORAMPHENICOL, chloramphenicol]
2 |  |  |  |  | 10/10 | (100%) | CS(=O)(=O)c1ccc([C@@H](O)[C@@H](CO)NC(=O)C(Cl)Cl)cc1 [THIAMPHENICOL, thiamphenicol]
